Data on ten compounds can be found in ChEMBL document CHEMBL3596189, “Perspective: Challenges and opportunities in TB drug discovery from phenotypic screening” (Bioorg Med Chem, 2015).

A word on the MIC50: it is the lowest concentration that inhibits either 50% of growth or 50% of the strains tested, depending on the study. As a reminder, the clearance is the volume of plasma or blood freed of the substance per unit of time. One may read the Vd as the apparent volume that relates the amount in the body to the concentration in plasma or blood. Low values mean little distribution into tissue, high ones wide distribution into tissue. Usually bioavailability stands for dose-corrected exposure relative to a reference, in per cent. Low readings indicate poor availability, high ones good availability.

SMILES strings stand for the structures. In brackets after ≈: the same amount, converted by molar mass.

Data set [1] relates to Mycobacterium tuberculosis. As to the kind of experiment: Antimycobacterial activity against Mycobacterium tuberculosis assessed as inhibition of bacterial growth measured in glycerol-containing medium. The data set is classed as functional.
Data set [2] can be described thus: Systemic clearance in mouse. It counts as ADME, organism-based. The settings on record: in vivo.
A short description of data set [3]: Volume of distribution in mouse. It counts as ADME, organism-based. The settings on record: in vivo.
Data set [4] can be described thus: Elimination half life in mouse. The data set is classed as ADME, organism-based. To be noted: in vivo, read-out: beta t1/2 (converted).
The nature of data set [5]: Oral bioavailability in mouse. The data set is classed as ADME, organism-based. The settings on record: in vivo.
For data set [6], the system named is Mycobacterium tuberculosis. As to the kind of experiment: Antimycobacterial activity against Mycobacterium tuberculosis infected in mouse assessed as log reduction of lung bacterial load at 50 mg/kg administered for 4 weeks. The data set is classed as functional.
Data set [7] has as its system Mycobacterium tuberculosis. The data set is described as follows: Antimycobacterial activity against Mycobacterium tuberculosis infected in mouse assessed as reduction of lung bacterial load at 25 mg/kg, po. It counts as functional.

On to `CC1(C)CCC(NC(=O)c2cc3c(Cl)cc(Cl)cc3[nH]2)CC1`, for which, in data set [1], the MIC50 is 0.02 µM (≈ 0.00679 µg/mL). In addition, the clearance in data set [2] is 18.1 mL/min/kg. Besides, in data set [3], the Vd was 4.1 L/kg. Further, the half-life in data set [4] is 5.1 h. Also, the bioavailability in data set [5] was above 50%.
Regarding `Cc1ccc2nc(C)c(C(=O)NCc3ccc(-c4ccncc4)cc3)n2c1`, in data set [1], the MIC50 worked out at 0.01 µM (≈ 0.00356 µg/mL). In data set [6], the log10cfu is recorded as 1.
On to `CC(=O)Nc1ccc(C)c(Nc2nccn2-c2cc(NC3CC3)ncn2)c1`, for which, in data set [1], the MIC50 was 1 µM (≈ 0.363 µg/mL).
Same read-out and setting: to `CC1(C)CCC(Cc2cc(O)c(-c3ccccc3)c(=O)[nH]2)CC1` belongs 0.03 µM (≈ 0.00934 µg/mL); to `Cc1ccc(CNC(=O)c2cnn3c2NC(c2ccccc2)CC3C(F)(F)F)cc1` (stereo unspecified), 1.9 µM (≈ 0.787 µg/mL); to `Cc1nc2ccccn2c1C(=O)NCc1ccccc1`, 0.2 µM (≈ 0.0531 µg/mL).
Consider `Cc1cc(C)c2cc(C(=O)NC3CCCCC3)[nH]c2c1`, for which the MIC50 in data set [1] is 0.8 µM (≈ 0.216 µg/mL).
On to `CC(C)Cc1cc(O)c(-c2ccccc2)c(=O)[nH]1`, for which the MIC50 in data set [1] is 2.2 µM (≈ 0.535 µg/mL).
Same read-out and setting: next, `Cc1ccc(C(=O)N2CCOCC2)cc1Nc1nccn1-c1cc(NC2CC2)ncn1`: 0.04 µM (≈ 0.0168 µg/mL).
Consider `Cc1ccc([C@H]2C[C@@H](C(F)(F)F)n3ncc(C(=O)NCc4ccc(F)cc4)c3N2)cc1`, for which, in data set [1], the MIC50 came to 0.2 µM (≈ 0.0865 µg/mL). Further, the log10cfu in data set [7] was 3.5.
